Data on one molecule can be found in patent US20160051560A1, “TREATMENTS INVOLVING ESLICARBAZEPINE OR ESLICARBAZEPINE ACETATE” (BIAL - PORTELA & Cª, S.A., priority 2013, published 2016).

The data set relates to patients with acute manic (including mixed) episode, bipolar I disorder. In words: Study BIA-2093-204: 3-week double-blind, randomised, placebo-controlled, fixed multiple dose study in acute mania. It counts as in vivo, human. The note with it: for YMRS score absolute change from V2 (1 Day) to V7 (21 Days), Mean ± SD / YMRS score absolute change from V2 (1 Day) to V7 (21 Days), Median (range): ITT. The method, then: Two 3-week multicentre, double-blind, randomised, placebo-controlled studies in acute mania (study BIA-2093-203: dose titrated by response, eslicarbazepine acetate (ESL) 600-1800 mg or 800-2400 mg, once-daily; study BIA-2093-204: fixed doses of 600, 1200 and 1800 mg, once-daily) were followed by a recurrence prevention study consisting of a 2-week open-label period (900 mg, once-daily) continued by a double-blind, parallel-group, fixed dose (300, 900 and 1800 mg, once-daily) period for a minimum of 6 months. The primary endpoint was change in Young Mania Rating Scale (YMRS) in studies BIA-2093-203 and BIA-2093-204, and the proportion of no worsening patients in the Clinical Global Impressions-Bipolar Version (CGI-BP) in study BIA-2093-205.
Study BIA-2093-204 (EudraCT No 2005-002133-13) followed a multicentre, double-blind, randomised, parallel-group, placebo-controlled, fixed multiple dose design. This study was conducted at 25 study centres in Europe, South Africa and South America. Patients were randomised (1:1:1:1) to one of the following treatment groups: (1) ESL 1800 mg QD, (2) ESL 1200 mg QD, (3) ESL 600 mg QD, and (4) Placebo QD. The visit schedule in study BIA-2093-204 was similar to that of study BIA-2093-203. […] Patients also had the option of entering Study BIA-2093-205.
Studies BIA-2093-203 and BIA-2093-204 enrolled patients with ages ≧18 years, currently displaying an acute manic (including mixed) episode and with a documented diagnosis of bipolar I disorder according to the DSM-IV criteria (2). Eligible patients should have a Young Mania Rating Scale (YMRS) total score ≧20, with symptoms of the current manic episode starting within two weeks prior to randomization. Patients were excluded if they had history of schizophrenia or schizoaffective disorder, psychotic features or rapid cycling. Patients were also excluded if they were treated with carbamazepine, oxcarbazepine or a depot-neuroleptic. Previous treatment with ESL or history of unresponsiveness, intolerance or hypersensitivity to other dibenzazepine compounds (carbamazepine, oxcarbazepine or licarbazepine) also constituted criteria for exclusion. Patients with clinical relevant risk of harm to self or others and history of substance abuse were also excluded. Women were excluded if they were pregnant or breast-feeding, or if of childbearing potential they were unable to use double-barrier contraception.
The following validated instruments were used: YMRS (20), the Clinical Global Impressions-Bipolar Version (CGI-BP) scale (21) and the Montgomery-Åsberg Depression Rating Scale (MADRS) (22). The YMRS score is the sum of 11 scoring items, ranging from 0 to 60 points; higher scores indicate higher mania symptomatology (20). The CGI-BP scale measures severity and treatment-related improvement in mania, depression and overall illness categories. It comprises 3 scales: severity of illness (1—normal to 7—very severely ill, in which 3—mildly ill was used as cut-off value for statistical analysis), change from preceding phase and worst phase (1—very much improved to 7—very much worse, and 8—not applicable) (21). The MADRS score is calculated as the sum of the 10 scoring items, ranging from 0 to 60 points: higher scores indicate higher depression symptomatology (22).
The primary efficacy endpoint for acute mania studies (BIA-2093-203 and BIA-2093-204) was the change in YMRS total score from baseline until the end of the 3-week treatment period. Investigators administered the YMRS at each visit. Secondary efficacy variables based on the YMRS score included responder rate (proportion of patients with ≧50% improvement or <12 points in the YMRS score), change in YMRS total score for each visit, proportion of patients in full remission (YMRS score <12), and time to full remission. The investigators completed CGI-BP in all visits and the test scores in the different categories were considered as secondary endpoints. […]

[1] abbreviates: ESL 1200 mg, n = 9, only study 204.
Where [2] appears, read: ESL 1800 mg, n = 10, only study 204.

As to `CC(=O)O[C@H]1Cc2ccccc2N(C(N)=O)c2ccccc21` [ESL, (S)-10-acetoxy-10,11-dihydro-5H-dibenz[b,f]azepine-5-carboxamide], where the note is “ESL 600 mg QD, n = 8”, the “YMRS score absolute change from V2 (1 Day) to V7 (21 Days), Mean ± SD” value (from here on “YMRS score absolute change from V2 … Mean ± SD”) is −16.9 ± 2.8 and the “YMRS score absolute change from V2 (1 Day) to V7 (21 Days), Median (range)” value (“YMRS score absolute change from V2 … (range)” for short) is given as −17.5 (−20.0, −12.0). In addition, where the note is “ESL 1200 mg QD, n = 9”, the “YMRS score absolute change from V2 … Mean ± SD” value is listed as −16.7 ± 9.1 and the “YMRS score absolute change from V2 … (range)” value is recorded as −15.0 (−35.0, −4.0). Besides, under setting [1], the “Any Adverse Events” value is 9 (100.0) Number (%) of patients, the Diarrhoea was 0 (0.0) Number (%) of patients, the Dizziness is on record as 2 (22.2) Number (%) of patients and the Headache was 5 (55.6) Number (%) of patients. In addition, under setting [1], the Nausea was 1 (11.1) Number (%) of patients, the Paraesthesia oral was 1 (11.1) Number (%) of patients, the Somnolence is given as 1 (11.1) Number (%) of patients and the Vomiting is reported as 2 (22.2) Number (%) of patients. Also, under “ESL 1800 mg QD, n = 9”, the “YMRS score absolute change from V2 … Mean ± SD” value is on record as −11.3 ± 10.9 and the “YMRS score absolute change from V2 … (range)” value is recorded as −15.0 (−26.0, 7.0). Besides, under “ESL 1800 mg group”, the “mean change in YMRS total scores from screening to V7” value is −11.3 and the “patients in full remission at the end of the 3-week treatment period” value was determined as 33.3%. For the same molecule, under setting [2], the “Any Adverse Events” value was 10 (100.0) Number (%) of patients, the Diarrhoea is recorded as 0 (0.0) Number (%) of patients, the Dizziness is 4 (40.0) Number (%) of patients and the Headache was 1 (10.0) Number (%) of patients. In addition, under setting [2], the Nausea is listed as 3 (30.0) Number (%) of patients, the Paraesthesia oral is recorded as 2 (20.0) Number (%) of patients, the Somnolence was 3 (30.0) Number (%) of patients and the Vomiting is listed as 2 (20.0) Number (%) of patients.
